BindingDB's records for doi:10.1016/j.bmc.2019.115235 (Shandong University, 2020)

Columns and labels:
[1] = target: T1, Hypoxia-inducible factor 1-alpha (Homo sapiens, UniProt Q16665); assay: […] of HIF1 in human T47D cells after 30 mins by luciferase reporter gene assay
[2] = target: T1, Hypoxia-inducible factor 1-alpha; assay: […] of HIF1 in human T47D cells

T1 sequence (Q16665 whole entry): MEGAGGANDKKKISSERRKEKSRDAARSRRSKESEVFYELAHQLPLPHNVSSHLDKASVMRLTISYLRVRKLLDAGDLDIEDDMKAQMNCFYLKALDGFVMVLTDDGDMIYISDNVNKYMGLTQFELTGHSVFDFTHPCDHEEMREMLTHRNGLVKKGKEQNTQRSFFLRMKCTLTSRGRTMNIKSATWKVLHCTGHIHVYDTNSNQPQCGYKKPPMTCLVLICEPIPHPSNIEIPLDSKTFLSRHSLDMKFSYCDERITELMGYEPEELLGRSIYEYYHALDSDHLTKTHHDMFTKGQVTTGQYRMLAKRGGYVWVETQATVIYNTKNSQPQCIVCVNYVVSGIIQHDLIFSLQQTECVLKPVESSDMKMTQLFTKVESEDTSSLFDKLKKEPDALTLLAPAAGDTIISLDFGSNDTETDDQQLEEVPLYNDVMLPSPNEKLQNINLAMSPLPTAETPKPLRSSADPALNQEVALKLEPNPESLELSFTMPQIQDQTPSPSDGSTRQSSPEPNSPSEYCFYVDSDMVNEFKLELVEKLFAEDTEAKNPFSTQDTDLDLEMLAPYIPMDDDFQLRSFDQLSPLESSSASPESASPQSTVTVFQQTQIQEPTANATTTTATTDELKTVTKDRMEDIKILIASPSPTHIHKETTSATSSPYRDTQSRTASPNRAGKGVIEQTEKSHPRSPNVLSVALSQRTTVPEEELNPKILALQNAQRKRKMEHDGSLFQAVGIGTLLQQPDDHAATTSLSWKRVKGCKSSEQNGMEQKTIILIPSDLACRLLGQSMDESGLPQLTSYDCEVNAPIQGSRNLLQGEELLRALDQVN

Row | IC50 [1] [nM] | IC50 [2] [nM] | SMILES
1 | 3 |  | COc1ccc([C@@H](O)[C@@H](C)Oc2ccc([C@@H]3CC[C@H](c4ccc(O[C@H](C)[C@H](O)c5ccc(OC)c(OC)c5)c(OC)c4)C3)cc2OC)cc1OC
2 |  | 20 | COc1ccc([C@@H](O)[C@@H](C)Oc2ccc([C@H]3O[C@H](c4ccc(OC)c(OC)c4)[C@H](C)[C@H]3C)cc2OC)cc1OC
